Results reported in US4871109A (priority 1988, dated 1989).

Legend:
[1] = in vivo; settings: rat
[2] = test system: rats; settings: rat, in vivo

Compound: FC(F)(F)OC(F)(F)C(F)(F)OC(F)(F)C(F)(F)OC(F)(F)C(F)(F)OC(F)(F)C(F)(F)OC(F)(F)C(F)(F)OC(F)(F)C(F)(F)OC(F)(F)C(F)(F)OC(F)(F)F [PFHG, 1,1,1,3,3,4,4,6,6,7,7,9,9,10,10,12,12,13,13,15,15,16,16,18, 18,19,19,21,21,22,22,24,24,24-tetratriacontafluoro-2,5,8,11, 14,17,20,23-octaoxatetetracosane]
- LD50 [1]: > 10000 mg/kg
- toxicity (in words) [2]: essentially nontoxic
